According to US20250359549A1, “PESTICIDE BACTERICIDAL COMPOSITION, WATER DISPERSIBLE GRANULE AND PREPARATION METHOD AND USE THEREOF” (QINGDAO RAINBOW CHEMICAL CO., LTD., priority 2023, published 2025):
Like-named read-outs stand apart in the source and are kept apart here.

Tests used:
plasmopara viticola = assay: Indoor toxicity measurement, leaf disk method; format: in vivo; details: grape downy mildew; for EC50: Plasmopara viticola, foliar, read-out: Measured EC50 value (X2)
Method: After the pesticide solution was naturally dried in air, each treated leaf disc with an upward back was placed in a culture dish, and absorbent paper moistened with the same pesticide solution was placed at the bottom of the culture dish. 15 leaf discs were placed in a concentric circle for each dish, with 4 repetitions for 1 dish treated. Blank control was treated with a 0.1% Tween-80 aqueous solution. Inoculation was performed after 24 h of pesticide treatment. […] The spore sac suspension was cultured with an artificial climate chamber. […] The severity of the disease was determined according to the percentage of the diseased area on the leaf disc to the leaf disc area, the number of diseased leaf discs and the severity of the disease were recorded, and the disease index and prevention and control effect were calculated according to the formula. […] The toxicity regression curve equation y=a+bx and the correlation coefficient r were obtained, and the EC50 of each single agent and different proportions of mixtures was calculated based on the regression equation. Based on the EC50 values of each single agent and compounded agent, the synergistic coefficients (SR) of each compounded agent were calculated according to Wadley method, and the compounding effect was evaluated by using SR value. […] In equations (1) and (2), SR is the synergistic coefficient of the mixture; X1 is the theoretical EC50 value of the mixture, unit: milligrams per liter (mg/L); X2 is the measured EC50 value of the mixture, unit: milligrams per liter (mg/L). […] X1′ is the theoretical value of the mixture, unit: milligrams per liter (mg/L); X2 is the measured value of the mixture, unit: milligrams per liter (mg/L). […] Similarly, the synergistic coefficients SRs of chlorothalonil and picoxystrobin (A+C)+tebuconazole (B) (referred to as (A+C)+B), tebuconazole and picoxystrobin (B+C)+chlorothalonil (A) (referred to as (B+C)+A) can be calculated.

[1] = 20° C., cited from earlier work
[2] = 25° C.; cited from earlier work
[3] = cited from earlier work

Structure (SMILES): CC(C)(C)C(O)(CCc1ccc(Cl)cc1)Cn1cncn1 (racemic) [Tebuconazole]
- EC50 (plasmopara viticola): 3.29 µg/mL
- solubility in an organic solvent ([1]; dichloromethane): > 200 mg/mL
- solubility in an organic solvent ([1]; hexane): < 0.1 mg/mL

Structure (SMILES): N#Cc1c(Cl)c(Cl)c(Cl)c(C#N)c1Cl [Chlorothalonil]
- EC50 (plasmopara viticola): 24.6 µg/mL
- distribution coefficient log P [2]: 2.92
- Hydrolysis ([3]; pH>9): slowly hydrolyzed
- Stability ([3]; storage at room temperature, weak alkaline and acidic aqueous solutions, UV radiation): stably stored at room temperature, and stable to weak alkaline and acidic aqueous solutions and UV radiation

Structure (SMILES): CO/C=C(/C(=O)OC)c1ccccc1COc1cccc(C(F)(F)F)n1 [Picoxystrobin]
- Measured EC50 value (X2) (plasmopara viticola): 2.48 µg/mL
